Literature values, collected in patent US20180291400A1, “METHODS AND COMPOSITIONS TO INCREASE HUMAN SOMATIC CELL NUCLEAR TRANSFER (SCNT) EFFICIENCY BY REMOVING HISTONE H3-LYSINE TRIMETHYLATION, AND DERIVATION OF HUMAN NT-ESC” (CHILDREN'S MEDICAL CENTER CORPORATION, priority 2015, published 2018).

Columns and labels:
[1] = biological target: SUV39h2 (Homo sapiens, UniProt Q9H5I1)
[2] = tested on: SETDB1 H3K9me3 HMTase

Chain of SUV39h2 (Q9H5I1 whole entry): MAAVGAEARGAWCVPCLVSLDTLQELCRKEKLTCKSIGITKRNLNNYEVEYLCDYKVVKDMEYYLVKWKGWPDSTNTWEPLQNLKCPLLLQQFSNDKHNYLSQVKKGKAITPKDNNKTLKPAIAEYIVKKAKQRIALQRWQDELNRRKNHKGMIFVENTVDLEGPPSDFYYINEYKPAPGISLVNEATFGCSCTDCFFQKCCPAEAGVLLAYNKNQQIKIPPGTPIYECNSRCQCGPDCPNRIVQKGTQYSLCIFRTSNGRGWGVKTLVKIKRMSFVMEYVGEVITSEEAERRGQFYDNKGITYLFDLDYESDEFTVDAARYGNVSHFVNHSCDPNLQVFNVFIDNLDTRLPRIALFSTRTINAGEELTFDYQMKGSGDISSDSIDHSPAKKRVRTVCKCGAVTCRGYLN

COc1cc2c(NC3CCN(C(C)C)CC3)nc(C3CCCCC3)nc2cc1OCCCN1CCCC1 [UNC0638, 2-Cyclohexyl-N-(1-isopropylpiperidin-4-yl)-6-methoxy-7-(3-(pyrrolidin-1-yl)propoxy)quinazolin-4-amine]
IC50 [1]: > 10 µM

Nc1nccc2c1ncn2[C@@H]1C=C(CO)[C@@H](O)[C@H]1O [DZNep, 3-Deazaneplanocin A]
levels of H3K27me3 and H3K9me3 [2]: reduced levels of both H3K27me3 and H3K9me3
